Assay results published in patent US20260124200A1, “METHOD OF TREATING NEURODEGENERATIVE DISEASES” (The Board of Trustees of the University of Illinois, priority 2022, published 2026).

Columns and labels:
[1] = system: FPN1.2KO C. elegans; assay: ROS (DCF) in lysate of treated FPN1.2KO C. elegans; format: in vivo; settings: treated day four, collected day 5, lysate with DCF
[2] = system: fpn-1.2KO C. elegans; assay: Dopaminergic neurodegeneration scoring in fpn-1.2KO; Pdat::GFP worms; format: in vivo
Description: (§1) The ability of hinokitiol and FeM-1269 to confer neuroprotection. Replicated NBIA, was created fpn-1.2KO C. elegans strain using CRISPR/Cas9-mediated knockout and then mated with Pdat::GFP strain to create a fpn-1.2KO strain with GFP-tagged dopaminergic neurons (fpn-1.2KO; Pdat::GFP). The genotype of strains was verified by genotyping PCR and Sanger sequencing. All strains used have been backcrossed to N2 at least three times. To treat C. elegans with small molecules, day 4 adult worms were transferred to NGM containing small molecules. Worms were transferred to newly seeded small molecules containing NGM until the day seven in which they are imaged using a confocal microscope with GFP fluorescence. The scoring is conducted in a blinded study in which the integrity of the dopaminergic neuron is observed to reflect neurodegeneration. […] Hinokitiol derivative FeM-1269 may have potential to increase the therapeutic index of hinokitiol. […] On the other hand, hinokitiol and FeM-1269 treatment to fpn-1.2KO worms caused robust reductions of fluorescence levels (FIG. 3G-H) from the concentration of 0.1 μM and 0.05 μM, respectively, which can be associated with the release of intracellular iron from ASI neurons. […]

[3] = Cyclic voltammetry of hinokitiol-iron complexes; format: physicochemical; settings: 100 mV/s, 0.1 M Tris, 1:1 MeOH:H2O, pH=7.2, 100 μM Fe(NO3)3
Procedure: These were obtained with a 100 mV/s scan rate with a Hg electrode, Ag/AgCl reference, and graphite auxiliary using a 0.1 M Tris buffer in 1:1 MeOH:H2O at pH=7.2 and 100 μM Fe(NO3)3.

[4] = EPR of Fe(II) oxidation on compound binding
[5] = molecular target: human apo-Tf (Homo sapiens, UniProt P02787); assay: Iron handoff to transferrin; format: biochemical
Procedure: For kinetic experiments, 4 μM human apo-Tf was incubated with 64 μM Fe(Hino)3 complex. The reactions were stopped at several time points using sample buffer. Samples were run using the same conditions as above. After running, the gels were stained with RAPIDStain (G-biosciences 786-31), according to the manufacturer's instructions. The formation of different Fe-Tf species was quantified by measuring the band densities using ImageLab 4.1 (Bio-Rad) and expressed as a function of molar fractions.

[6] = system: flatiron mice; assay: ICP-MS brain iron level in flatiron mice; format: in vivo
Procedure: In parallel to C. elegans, flatiron mice were used, a leading animal model of FPN1 deficiency due to H32R mutation of FPN1 (34, 35). These mice were subjected to ICP-MS and behavioral studies in which blood samples and tissues were collected and submitted for analysis. In addition, behavior was assessed by an elevated plus maze, exploratory mazes, and daily monitoring. […] To determine dose-dependency these mice were subjected to a singular IP injection to assess acute administration and then treated chronically via IP injections of 10 mg/kg for a week.

[7] = system: fpn-1.2KO C. elegans; assay: GFP-tagged ferritin (ftn-1) fluorescence in ASI neurons of fpn-1.2KO worms; format: in vivo
Description: as §1

[8] = LC-MS in vitro dopamine oxidation assay; format: physicochemical; settings: 100 μM dopamine
Procedure: To monitor dopamine oxidation, an in vitro assay using an LC-MS was developed by monitoring dopamine concentrations via mass spectrometry hits. Samples of 100 μM dopamine were prepared and then treated with either control, hino, or FeM-1269. […] In addition, this was monitored via LC-MS to see the concentration of DAC generated in this same process.

Chain of human apo-Tf (P02787 20-698): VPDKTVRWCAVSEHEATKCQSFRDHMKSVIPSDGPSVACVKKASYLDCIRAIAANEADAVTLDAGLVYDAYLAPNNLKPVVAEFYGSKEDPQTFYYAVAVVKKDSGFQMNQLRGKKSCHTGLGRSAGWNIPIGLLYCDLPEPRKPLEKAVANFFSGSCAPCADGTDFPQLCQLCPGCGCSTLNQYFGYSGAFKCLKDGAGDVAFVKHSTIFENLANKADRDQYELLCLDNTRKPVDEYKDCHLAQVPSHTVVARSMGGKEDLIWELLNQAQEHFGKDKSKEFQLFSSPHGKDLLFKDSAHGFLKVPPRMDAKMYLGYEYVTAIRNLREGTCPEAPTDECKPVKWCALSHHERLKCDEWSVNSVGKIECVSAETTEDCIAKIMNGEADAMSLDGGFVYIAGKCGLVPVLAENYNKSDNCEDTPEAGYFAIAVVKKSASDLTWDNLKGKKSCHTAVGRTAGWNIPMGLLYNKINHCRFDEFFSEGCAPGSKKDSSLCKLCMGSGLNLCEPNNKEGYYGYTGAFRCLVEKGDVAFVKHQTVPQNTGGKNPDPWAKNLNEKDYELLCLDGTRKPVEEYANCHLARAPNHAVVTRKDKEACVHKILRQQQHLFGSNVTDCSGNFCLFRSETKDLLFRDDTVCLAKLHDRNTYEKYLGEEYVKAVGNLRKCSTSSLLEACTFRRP

Row | ferroxidase-mimicking activity (EPR) ([4]; EPR results) | EPR signal g′ ([4]; Fe(II) plus compound 3:1, 1:1 MeOH:H2O, 77K) | iron handoff to transferrin [5] | dopamine oxidation (dopamine remaining) [8] | Structure (SMILES) | ROS level in vivo [1] | concentration showing neuroprotective efficacy ([2]; worms treated day 4 to day seven) | redox potentials of Fe:Hino [3] | blood-brain barrier penetration ([6]; inferred from brain iron decrease) | brain iron level after acute administration ([6]; singular IP injection) | concentration from which fluorescence levels are robustly reduced ([7]; ASI neurons, GFP-tagged ferritin) | neuroprotective effect (dopaminergic neurodegeneration score) ([2]; all concentrations administered) | ferritin-GFP fluorescence level in ASI neurons ([7]; all administered concentrations)
1 | promoting Fe(II) oxidation to Fe(III) | 4.3 | can handoff iron to transferrin | mitigating dopamine oxidation | CC(C)c1cccc(=O)c(O)c1 [hinokitiol] | restore wild type levels of ROS | 0.05 to 0.1 µM | decreased with increasing hinokitiol concentrations | capacity to penetrate blood-brain barrier | dose-dependent decrease of brain iron level | ≥ 0.1 µM |  | 
2 |  |  |  |  | Cc1c(O)c(=O)ccn1C [DFP, deferiprone] |  |  |  |  |  |  | did not confer neuroprotective effects | failed to reduce the fluorescence level
